Read-outs that look alike come from different tables or passages of the source.

One assay deals with Ba/F3-c-KIT(D816V). The assay can be described thus: Proliferation inhibitory activity on Ba/F3 cell (CellTiter-Glo, 72 hours), c-KIT(D816V). In kind it is cell-based. As to the method: (§1) Ba/F3-TEL-PDGFRα(WT), Ba/F3-TEL-PDGFβ(WT), Ba/F3-c-KIT(D816V) (Kyinno, #KC-0138), c-KIT V560G/D816V, c-KIT D814Y were seeded at 3×10^3/100 μl/well in a clear bottom white 96-well plate. A culture solution containing compounds of 12 concentrations (0.00001-2 mM) serially diluted in 3 folds and the DMSO control group was added at 0.5 μl/well each to a final concentration of 0.00005-10 μM, and then incubated in a CO2 incubator at 37° C. for 72 hours. After 72 hours, the plate treated with the compound was taken out, CellTiter-Glo® Assay (Promega) solution was treated with 100 μl/well, followed by mixing well. After mixing well for about 10 minutes at room temperature, […] was measured using a microplate reader. The data were presented as percentages in proportion to treated cells based on the vehicle, GI50 (nM) values were calculated using GraphPad Prism 8.3.0 (GraphPad software Inc., San Diego).
(§2) The inhibitory activities of Ba/F3 expressing PDGFR-α, PDGFR-β, c-KIT(D816V), c-KIT V560G/D816V, and c-KIT D814Y measured as described above were measured and shown in Table 7 below (A: GI50≤200 nM; B: 200 nM<GI50≤500 nM; C: GI50>500 nM).
A general note: In ATP-based viability assays light output follows the ATP content of the culture.

A further assay concerns c-KIT V560G/D816V. The assay can be described thus: Proliferation inhibitory activity on Ba/F3 cell (CellTiter-Glo, 72 hours), c-KIT V560G/D816V. In kind it is cell-based. The conditions noted are these: read-out: Cell (nM) c-KIT V560G/D816V (GI50 class). As to the method: as §1, §2
Setting [1] is: Mus musculus, BaF3, read-out: Ba/F3 (nM) c-KIT (D816V) (GI50 class).
Where [2] appears, read: Mus musculus, BaF3, c-KIT V560G/D816V cells.

Regarding `COc1cc2c(-c3ccc(NC(=O)Cc4ccc(C(F)(F)F)cc4)cc3)ncnc2cc1OCCCNC1CC1` [Example 25, N-(4-(7-(3-(cyclopropylamino)propoxy)-6-methoxyquinazolin-4-yl)phenyl)-2-(4-(trifluoromethyl)phenyl)acetamide], the GI50 with Ba/F3-c-KIT(D816V) (setting [1]) and in the assay with c-KIT V560G/D816V (setting [2]) was not above 200 nM each time.
As to `COCCN1CC(Oc2cc3ncnc(-c4ccc(NC(=O)Cc5ccc(C(F)(F)F)cc5)cc4)c3cc2OC)C1` [Example 28, N-(4-(6-methoxy-7-((1-(2-methoxyethyl)azetidin-3-yl)oxy)quinazolin-4-yl)phenyl)-2-(4-(trifluoromethyl)phenyl)acetamide], the GI50 with Ba/F3-c-KIT(D816V) (setting [1]) is not above 200 nM; in the assay with c-KIT V560G/D816V (setting [2]), more than 500 nM.
For `COc1cc2c(-c3ccc(NC(=O)Cc4ccc(C(F)(F)F)cc4)cc3)ncnc2cc1OCCCN1CCN(C)C(=O)C1` [Example 143, N-(4-(6-methoxy-7-(3-(4-methyl-3-oxopiperazin-1-yl)propoxy)quinazolin-4-yl)phenyl)-2-(4-(trifluoromethyl)phenyl)acetamide] the same measures were not above 200 nM and not above 200 nM.
For `COc1cc2ncnc(-c3ccc(NC(=O)Cc4ccc(C(F)(F)F)cc4)cc3)c2cc1OC1CCNC1` (stereo not drawn) [Example 139, N-(4-(7-methoxy-6-(pyrrolidin-3-yloxy)quinazolin-4-yl)phenyl)-2-(4-(trifluoromethyl)phenyl)acetamide] the same measures were not above 200 nM and more than 500 nM.
Consider `COc1cc2ncnc(-c3ccc(NC(=O)Cc4ccc(C(F)(F)F)cc4)cc3)c2cc1OCCCN1CCN(C2CC2)CC1` [Example 127, N-(4-(6-(3-(4-cyclopropylpiperazin-1-yl)propoxy)-7-methoxyquinazolin-4-yl)phenyl)-2-(4-(trifluoromethyl)phenyl)acetamide], for which the values for the GI50 with Ba/F3-c-KIT(D816V) (setting [1]) and with c-KIT V560G/D816V (setting [2]) were not above 200 nM and 200 to 500 nM, respectively.
For `COc1cc2c(-c3ccc(NC(=O)Cc4ccc(C(F)(F)F)cc4)cc3)ncnc2cc1OCCCN1CCC(C)CC1` [Example 44, N-(4-(6-methoxy-7-(3-(4-methylpiperidin-1-yl)propoxy)quinazolin-4-yl)phenyl)-2-(4-(trifluoromethyl)phenyl)acetamide] the same measures were not above 200 nM and not above 200 nM.
For `COc1cc2ncnc(-c3ccc(NC(=O)Cc4ccc(C(F)(F)F)cc4)cc3)c2cc1OCCCN1CCCC1` [Example 160, N-(4-(7-methoxy-6-(3-(pyrrolidin-1-yl)propoxy)quinazolin-4-yl)phenyl)-2-(4-(trifluoromethyl)phenyl)acetamide] the same measures were not above 200 nM and not above 200 nM.
Consider `COc1cc2c(-c3ccc(NC(=O)Cc4ccc(C(F)(F)F)cc4)cc3)ncnc2cc1OCCCN1CCn2c(nnc2C(F)(F)F)C1` [Example 34, N-(4-(6-methoxy-7-(3-(3-(trifluoromethyl)-5,6-dihydro-[1,2,4]triazolo[4,3-a]pyrazin-7(8H)-yl)propoxy)quinazolin-4-yl)phenyl)-2-(4-(trifluoromethyl)phenyl)acetamide], for which the GI50 in the assay with Ba/F3-c-KIT(D816V) (setting [1]) and in the assay on c-KIT V560G/D816V (setting [2]) was not above 200 nM in each case.
Regarding `CCN1CC[C@H](COc2cc3ncnc(-c4ccc(NC(=O)Cc5ccc(C(F)(F)F)cc5)cc4)c3cc2OC)C1` [Example 41, (S)-N-(4-(7-((1-ethylpyrrolidin-3-yl)methoxy)-6-methoxyquinazolin-4-yl)phenyl)-2-(4-(trifluoromethyl)phenyl)acetamide], the GI50 in the assay on Ba/F3-c-KIT(D816V) (setting [1]) and with c-KIT V560G/D816V (setting [2]) was not above 200 nM throughout.
For the molecule `COc1cc2c(-c3ccc(NC(=O)Cc4ccc(Cl)c(C(F)(F)F)c4)cc3)ncnc2cc1OCC1CCNCC1` [Example 77, 2-(4-chloro-3-(trifluoromethyl)phenyl)-N-(4-(6-methoxy-7-(piperidin-4-ylmethoxy)quinazolin-4-yl)phenyl)acetamide], the GI50 with Ba/F3-c-KIT(D816V) (setting [1]) is not above 200 nM; in the assay on c-KIT V560G/D816V (setting [2]), 200 to 500 nM.
For `CCN1CCC(COc2cc3ncnc(-c4ccc(NC(=O)Cc5ccc(C(F)(F)F)c(F)c5)cc4)c3cc2OC)CC1` [Example 80, N-(4-(7-((1-ethylpiperidin-4-yl)methoxy)-6-methoxyquinazolin-4-yl)phenyl)-2-(3-fluoro-4-(trifluoromethyl)phenyl)acetamide] the same measures were not above 200 nM and not above 200 nM.
Regarding `COc1cc2c(-c3ccc(NC(=O)Cc4ccc(C(F)(F)F)cc4)cc3)ncnc2cc1OC[C@H]1CCN(C(=O)OC(C)(C)C)C1` [Example 36, tert-butyl (S)-3-(((6-methoxy-4-(4-(2-(4-(trifluoromethyl)phenyl)acetamido)phenyl)quinazolin-7-yl)oxy)methyl)pyrrolidin-1-carboxylate], the results for the GI50 with Ba/F3-c-KIT(D816V) (setting [1]) and with c-KIT V560G/D816V (setting [2]) were not above 200 nM and more than 500 nM, respectively.
The corresponding values for `COc1cc2ncnc(-c3ccc(NC(=O)Cc4ccc(C(F)(F)F)cc4)cc3)c2cc1O[C@H]1CCCO1` [Example 156, (S)-N-(4-(7-methoxy-6-((tetrahydrofuran-2-yl)oxy)quinazolin-4-yl)phenyl)-2-(4-(trifluoromethyl)phenyl)acetamide] are not above 200 nM and 200 to 500 nM.
Turning to `CCN1CCC(Oc2cc3c(-c4ccc(NC(=O)Cc5ccc(C(F)(F)F)cc5)cc4)ncnc3cc2OC)CC1` [Example 123, N-(4-(6-((1-ethylpiperidin-4-yl)oxy)-7-methoxyquinazolin-4-yl)phenyl)-2-(4-(trifluoromethyl)phenyl)acetamide], the GI50 with Ba/F3-c-KIT(D816V) (setting [1]) and in the assay on c-KIT V560G/D816V (setting [2]) was not above 200 nM in each case.
For `COc1cc2c(-c3ccc(NC(=O)Cc4ccc(C(F)(F)F)cc4)cc3)ncnc2cc1OC1CNC1` [Example 24, N-(4-(7-(azetidine-3-yloxy)-6-methoxyquinazolin-4-yl)phenyl)-2-(4-(trifluoromethyl)phenyl)acetamide], the GI50 in the assay with Ba/F3-c-KIT(D816V) (setting [1]) was not above 200 nM; with c-KIT V560G/D816V (setting [2]), more than 500 nM.
For `COc1cc2c(-c3ccc(NC(=O)Cc4ccc(C(F)(F)F)cc4)cc3)ncnc2cc1OC[C@@H]1CCCNC1` [Example 73, (R)-N-(4-(6-methoxy-7-(piperidin-3-ylmethoxy)quinazolin-4-yl)phenyl)-2-(4-(trifluoromethyl)phenyl)acetamide] the same measures were not above 200 nM and not above 200 nM.
For `COc1cc2c(-c3ccc(NC(=O)CCc4ccccc4)cc3)ncnc2cc1OCC1CCNCC1` [Example 71, N-(4-(6-methoxy-7-(piperidin-4-ylmethoxy)quinazolin-4-yl)phenyl)-3-phenylpropanamide] the same measures were not above 200 nM and 200 to 500 nM.
For `COc1cc2c(-c3ccc(NC(=O)Cc4ccc(C(F)(F)F)cc4)cc3)ncnc2cc1OC[C@H]1CCNC1` [Example 39, (S)-N-(4-(6-methoxy-7-(pyrrolidin-3-ylmethoxy)quinazolin-4-yl)phenyl)-2-(4-(trifluoromethyl)phenyl)acetamide] the same measures were not above 200 nM and 200 to 500 nM.
“N-(4-(7-methoxy-6-(pyridin-3-ylmethoxy)quinazolin-4-yl)phenyl)-2-(4-trifluoromethyl)phenyl)acetamide [Example 157]”: the GI50 with Ba/F3-c-KIT(D816V) (read-out: Ba/F3 (nM) c-KIT (D816V) (GI50 class)) is not above 200 nM; in the assay on c-KIT V560G/D816V (c-KIT V560G/D816V cells), more than 500 nM.
Consider `COc1cc2c(-c3ccc(NC(=O)Cc4ccc(C(F)(F)F)cc4)cc3)ncnc2cc1OCCCN1CCN2CCCC2C1` (stereo not drawn) [Example 33, N-(4-(7-(3-(hexahydropyrrolo[1,2-a]pyrazin-2(1H)-yl)propoxy)-6-methoxyquinazolin-4-yl)phenyl)-2-(4-(trifluoromethyl)phenyl)acetamide], for which the GI50 in the assay with Ba/F3-c-KIT(D816V) (setting [1]) and in the assay with c-KIT V560G/D816V (setting [2]) was not above 200 nM throughout.
For `COCCN1CCCC(COc2cc3ncnc(-c4ccc(NC(=O)Cc5ccc(C(F)(F)F)cc5)cc4)c3cc2OC)C1` (stereo not drawn) [Example 42, N-(4-(6-methoxy-7-((1-(2-methoxyethyl)piperidin-3-yl)methoxy)quinazolin-4-yl)phenyl)-2-(4-(trifluoromethyl)phenyl)acetamide], the GI50 with Ba/F3-c-KIT(D816V) (setting [1]) and in the assay with c-KIT V560G/D816V (setting [2]) was not above 200 nM throughout.
`COc1ccc(CN2CC(Oc3cc4ncnc(-c5ccc(NC(=O)Cc6ccc(C(F)(F)F)cc6)cc5)c4cc3OC)C2)cc1` [Example 27, N-(4-(6-methoxy-7-((1-(4-methoxybenzyl)azetidin-3-yl)oxy)quinazolin-4-yl)phenyl)-2-(4-(trifluoromethyl)phenyl)acetamide]: the GI50 is not above 200 nM in the assay on Ba/F3-c-KIT(D816V) (setting [1]) and more than 500 nM in the assay with c-KIT V560G/D816V (setting [2]).
For the molecule `COc1cc2c(-c3ccc(NC(=O)Cc4ccc(C(F)(F)F)cc4)cc3)ncnc2cc1OCCCCl` [Example 23, N-(4-(7-(3-chloropropoxy)-6-methoxyquinazolin-4-yl)phenyl)-2-(4-(trifluoromethyl)phenyl)acetamide], the results for the GI50 in the assay on Ba/F3-c-KIT(D816V) (setting [1]) and in the assay on c-KIT V560G/D816V (setting [2]) were not above 200 nM and 200 to 500 nM, respectively.
The corresponding values for `COc1cc2ncnc(-c3ccc(NC(=O)Cc4ccc(C(F)(F)F)cc4)cc3)c2cc1OCCCN1C[C@H]2C[C@@H]1CN2C` [Example 159, N-(4-(7-methoxy-6-(3-((1R,4R)-5-methyl-2,5-diazabicyclo[2.2.1]heptane-2-yl)propoxy)quinazolin-4-yl)phenyl)-2-(4-(trifluoromethyl)phenyl)acetamide] are not above 200 nM and 200 to 500 nM.
